Assay results from patent publication US20080305536A1, “Method for Culturing Microorganisms” (priority 2005, published 2008).

System: NCIMB 11955
Details: USM, 1% glucose, 60° C., 250 rpm, grown for 36 hours; flasks with 0, 1, 2, 3 or 4% ethanol; FIG. 1
Procedure: Ethanol tolerance of a wild-type organism (NCIMB 11955) was tested in order to determine the starting point. The organism was grown overnight (LB agar plate, 60° C.) and a colony used to inoculate an overnight culture (100 mL USM, 1% glucose, 60° C., 250 rpm). This culture was then used to inoculate a triplicate series of flasks containing 0, 1, 2, 3, or 4% ethanol which were then grown for 36 hours before the growth was measured (50 mL USM, 1% glucose, 60° C., 250 rpm).

For `CCO` [ethanol], the “ethanol concentration tolerated (growth measured)” value was ≤ 4%.
